Results from PMC11729419, “Thiol-Reactive or Redox-Active: Revising a Repurposing Screen Led to a New Invalidation Pipeline and Identified a True Noncovalent Inhibitor Against Papain-like Protease from SARS-CoV-2” (ACS Pharmacology & Translational Science, 2024).
Where a name gives a salt, the structure may show the parent alone. Read-outs that look alike come from different tables or passages of the source.

What was measured:
SARS-CoV-2 PLpro-NAB = SARS-CoV-2 PLpro-NAB (Severe acute respiratory syndrome coronavirus 2, UniProt P0DTD1); assay: biochemical
SARS-CoV-2 Mpro = SARS-CoV-2 Mpro (Severe acute respiratory syndrome coronavirus 2, UniProt P0DTD1); type: biochemical; settings: 10 μM; 1 mM DTT
[1] = read-out: HC PLpro-NAB SARS-CoV-2 inhibition [%] 20 µM triplicates DTT BUFFER
[2] = read-out: HP PLpro-NAB SARS-CoV-2 inhibition [%] 20 µM triplicates L-CYS BUFFER
[3] = Table S1, 20 µM, DTT buffer, average (SD)
[4] = Table S1, 20 µM, L-cysteine buffer, average (SD)
[5] = Table S1, DTT buffer, read-out: HP PLpro-NAB SARS-CoV-2 IC50 [µM] triplicates DTT BUFFER
[6] = Table S1, L-cysteine buffer, read-out: HP PLpro-NAB SARS-CoV-2 IC50 [µM] duplicates L-CYS BUFFER

Row | Compound | Interference inhibition [%] 20 µM based on product interference DTT BUFFER (Table S1, 20 µM, DTT buffer) [%] | further results
1 | NC(Cc1cc(O)c(O)cc1O)C(=O)O (racemic) [6-Hydroxy-DL-DOPA] | 14.95 | 
2 | Cc1nc2c(=O)n(C)c(=O)nc-2n(C)n1 [3-Methyl Toxoflavin] | 10.44 | 
3 | O=C1C(=O)c2ccccc2-c2ccccc21 [9,10-Phenanthrenequinone] | -2.46 | 
4 | C[n+]1c2cc(N)ccc2cc2ccc(N)cc21.[Cl-] [Acriflavinium Hydrochloride] | -17.48 | 
5 | CC1(C)CCC2=C(O1)C(=O)c1ccccc1C2=O [Alpha Lapachone] | -0.29 | 
6 | CC1(C)C(=O)N=C2C1=C(O)C(=O)c1ccccc12 [BVT-948] | -137.72 | 
7 | Cn1cccc1/C=C1\C(=O)NC(=O)c2ccccc21 [BYK-204165] | -5.54 | 
8 | CC1(C)CCC2=C(O1)c1ccccc1C(=O)C2=O [Beta-Lapachone] | 13.40 | 
9 | C[C@H]1COC2=C1C(=O)C(=O)c1c2ccc2c1CCCC2(C)C [Cryptotanshinone] | 3.37 | 
10 | CC(C)Nc1cccnc1N1CCN(C(=O)c2cc3cc(NS(C)(=O)=O)ccc3[nH]2)CC1 [Delavirdine (mesylate), Delavirdine] |  | inhibition at 20 µM (SARS-CoV-2 PLpro-NAB; [1]): 52.2%; inhibition at 20 µM (SARS-CoV-2 PLpro-NAB; [2]): -69.3%; Interference inhibition [%] 20 µM based on product interference DTT BUFFER: -20.91%
11 | Cc1cccc2c3c(ccc12)C1=C(C(=O)C3=O)[C@@H](C)CO1 [Dihydrotanshinone I] | -55.01 | 
12 | Cc1cc(-c2ccc(/N=N/c3ccc4c(S(=O)(=O)O)cc(S(=O)(=O)O)c(N)c4c3O)c(C)c2)ccc1/N=N/c1ccc2c(S(=O)(=O)O)cc(S(=O)(=O)O)c(N)c2c1O [Evans Blue] | 6.47 | 
13 | Oc1c(Cl)cc(Cl)c(Cl)c1Cc1c(O)c(Cl)cc(Cl)c1Cl [Hexachlorophene] | 15.14 | 
14 | CC[n+]1c(-c2ccccc2)c2cc(N)ccc2c2ccc(N)cc21 [Homidium Bromide] | 1.40 | 
15 | O=C1C=CC(=O)c2c(O)cccc21 [Juglone] | 12.84 | 
16 | CCOC(=O)C1=C(C)N=c2sc(=Cc3ccc(OCC(=O)O)cc3)c(=O)n2C1c1ccc(SC)cc1 (stereo not shown) [ML120] | 3.32 | 
17 | COc1cccc2c(NCc3ccccc3)nc(-n3c(N)nc4ccccc43)nc12 [ML240] | 16.72 | 
18 | CC1=CC(=O)c2ccccc2C1=O [Menadione] |  | inhibition at 20 µM (SARS-CoV-2 PLpro-NAB; [1]): 115%; inhibition at 20 µM (SARS-CoV-2 PLpro-NAB; [2]): -45.7%; Interference inhibition [%] 20 µM based on product interference DTT BUFFER: -9.41%

Row | Compound | Interference inhibition [%] 20 µM based on product interference DTT BUFFER (Table S1, 20 µM, DTT buffer) [%] | further results
19 | O=C1C(Cl)=C(NCCN2CCOCC2)C(=O)c2ncccc21 [NSC-663284 (FhG)] | -0.99 | HC PLpro-NAB SARS-CoV-2 inhibition [%] 20 µM triplicates DTT BUFFER (SARS-CoV-2 PLpro-NAB; [3]): 150.90 (0.34) %; HC PLpro-NAB SARS-CoV-2 inhibition [%] 20 µM triplicates DTT BUFFER (SARS-CoV-2 PLpro-NAB; Table S1, 20 µM, DTT buffer, average (SD), listed as NSC 663284 (EOS)): 168.59 (3.49) %; HP PLpro-NAB SARS-CoV-2 inhibition [%] 20 µM triplicates L-CYS BUFFER (SARS-CoV-2 PLpro-NAB; [4]): 7.56 (11.27) %; HP PLpro-NAB SARS-CoV-2 inhibition [%] 20 µM triplicates L-CYS BUFFER (SARS-CoV-2 PLpro-NAB; Table S1, 20 µM, L-cysteine buffer, average (SD), listed as NSC 663284 (EOS)): -38.39 (8.32) %; IC50 (SARS-CoV-2 PLpro-NAB; Table S1, DTT buffer, listed as NSC 663284 (EOS), read-out: HP PLpro-NAB SARS-CoV-2 IC50 [µM] triplicates DTT BUFFER): 2.15 µM; IC50 (SARS-CoV-2 PLpro-NAB; [5]): 0.22 µM; IC50 (SARS-CoV-2 PLpro-NAB; [6]): > 20 µM; Interference inhibition [%] 20 µM based on product interference DTT BUFFER (Table S1, 20 µM, DTT buffer, listed as NSC 663284 (EOS)): 14.95%
20 | Nc1ccc(O)c2ncccc12 [PD119507] | 3.43 | 
21 | N#CSc1cc(SC#N)c(N)nc1N [PR-619] | -14.28 | Inhibition of Mpro (SARS-CoV-2 Mpro): inhibition of both proteases from SARS-CoV-2
22 | Cc1cc(-c2ccc(/C=C3/SC(=Nc4ccc(Cl)c(C(=O)O)c4)NC3=O)o2)c([N+](=O)[O-])cc1C [PT 1] | 9.93 | 
23 | CC[N+](C)(CC)CCC[n+]1c(-c2ccccc2)c2cc(N)ccc2c2ccc(N)cc21.[I-].[I-] [Propidium-Iodide] | 0.27 | 
24 | O=c1ccc2[n+]([O-])c3ccc(O)cc3oc-2c1 [Resazurin (sodium salt), Resazurin] | 11.91 | inhibition at 20 µM (SARS-CoV-2 PLpro-NAB; [1]): 72.9%; inhibition at 20 µM (SARS-CoV-2 PLpro-NAB; [2]): -36.5%
25 | O=C(O)c1c(Cl)c(Cl)c(Cl)c(Cl)c1-c1c2cc(I)c(=O)c(I)c-2oc2c(I)c(O)c(I)cc12 [Rose Bengal Sodium] | 12.07 | inhibition at 20 µM (SARS-CoV-2 PLpro-NAB; Table S1, 20 µM, DTT buffer, average (SD), read-out: HC PLpro-NAB SARS-CoV-2 inhibition [%] 20 µM triplicates DTT BUFFER): 107%; inhibition at 20 µM (SARS-CoV-2 PLpro-NAB; Table S1, 20 µM, L-cysteine buffer, average (SD), read-out: HP PLpro-NAB SARS-CoV-2 inhibition [%] 20 µM triplicates L-CYS BUFFER): -32.4%; IC50 (SARS-CoV-2 PLpro-NAB; [5]): > 20 µM; IC50 (SARS-CoV-2 PLpro-NAB; [6]): > 20 µM
26 | O=C(Nc1ccccc1-c1cn2c(CN3CCNCC3)csc2n1)c1cnc2ccccc2n1 [SRT 1720] | 22.23 | 
27 | Cc1c(S(=O)(=O)O)oc2c1C(=O)C(=O)c1c-2ccc2c1CCCC2(C)C [Sodium-Tanshinone-ii-A-Sulfonate] | -7.60 | inhibition at 20 µM (SARS-CoV-2 PLpro-NAB; [2]): -51.9%
28 | CN(C)CCNc1nc2cc(O)ccc2c2c1C(=O)c1ccccc1-2.Cl.Cl [TAS-103 (dihydrochloride)] | 1.87 | 
29 | COCCn1c2c([n+](Cc3cnccn3)c1C)C(=O)c1ccccc1C2=O [YM-155] | -0.69 | 
30 | Bacitracin [Bacitracin (Zinc)] | -1.67 | 
31 | Chicago-Sky-Blue-6b | -5.59 | 
32 | Cyanocobalamin | 4.81 | HC PLpro-NAB SARS-CoV-2 inhibition [%] 20 µM triplicates DTT BUFFER (SARS-CoV-2 PLpro-NAB; [3]): 141.27 (3.32) %; HP PLpro-NAB SARS-CoV-2 inhibition [%] 20 µM triplicates L-CYS BUFFER (SARS-CoV-2 PLpro-NAB; [4]): 32.29 (7.95) %; IC50 (SARS-CoV-2 PLpro-NAB; [5]): 2.9 µM; IC50 (SARS-CoV-2 PLpro-NAB; [6]): > 20 µM
33 | Ro-08-2750 | 0.17 | 
34 | Ryuvidine | -2.15 | 
35 | SF1670 | 9.17 | 
36 | Walrycin B |  | Interference inhibition [%] 20 µM based on product interference DTT BUFFER (Table S1, 20 µM, DTT buffer, listed as Walrycin B (EOS)): 8.01%; Interference inhibition [%] 20 µM based on product interference DTT BUFFER (Table S1, 20 µM, DTT buffer, listed as Walrycin B (FhG)): 4.84%
